The values below come from US20100317698A1, “Polysubstituted Pyridinylaminoalkylene- and Pyridinyloxyalkylene-Cyclopropanamine Compounds, a Process for Their Preparation and Pharmaceutical Compositions Containing Them” (LES LABORATOIRES SERVIER, priority 2006, published 2010).

For series [1], the target named is T1, type α4β2 central nicotinic receptors (Rattus norvegicus, UniProt P09483+P12390).
T1 construct: from tissue; host or cells: rat brain membranes
Kind of series: Displacement of binding of [3H]-cytisine to type α4β2 nicotinic receptors of rat brain. The note with it: rat brain membranes, read-out: Affinity (Ki, nM) for type α4β2 receptors. Here is the method:
This study, carried out according to the technique described in Molec. Pharmacol., 1990, 39; 9-12, is aimed at determining the affinity of compounds of the present invention for type […] central nicotinic receptors.
Membranes (250 μg/ml) of rat brain are incubated (2 hours, 20° C.) in the presence of a series of concentrations (0.01-10 μM) of each compound of the present invention (diluted starting from a 10 mM stock solution in DMSO) and [^3H]-cytisine (S.A.: 1184 GBq/mmol: 2 nM) in phosphate buffer (NaH2PO4 20 mM, pH 7.4); final volume: 250 μl. The non-specific binding is determined by incubating membranes in the presence of 10 μM of (−)nicotine. The affinity of the compounds of the present invention for type α4β2 central nicotinic receptors is characterised by determination of the Ki.

Structures can show the parent of a compound that is named as a salt.

Usually melting point stands for the temperature of the solid-liquid transition. By Ki is commonly meant the dissociation constant of the complex between target and ligand, obtained from inhibition or displacement.

T1 sequence (P09483 31-630): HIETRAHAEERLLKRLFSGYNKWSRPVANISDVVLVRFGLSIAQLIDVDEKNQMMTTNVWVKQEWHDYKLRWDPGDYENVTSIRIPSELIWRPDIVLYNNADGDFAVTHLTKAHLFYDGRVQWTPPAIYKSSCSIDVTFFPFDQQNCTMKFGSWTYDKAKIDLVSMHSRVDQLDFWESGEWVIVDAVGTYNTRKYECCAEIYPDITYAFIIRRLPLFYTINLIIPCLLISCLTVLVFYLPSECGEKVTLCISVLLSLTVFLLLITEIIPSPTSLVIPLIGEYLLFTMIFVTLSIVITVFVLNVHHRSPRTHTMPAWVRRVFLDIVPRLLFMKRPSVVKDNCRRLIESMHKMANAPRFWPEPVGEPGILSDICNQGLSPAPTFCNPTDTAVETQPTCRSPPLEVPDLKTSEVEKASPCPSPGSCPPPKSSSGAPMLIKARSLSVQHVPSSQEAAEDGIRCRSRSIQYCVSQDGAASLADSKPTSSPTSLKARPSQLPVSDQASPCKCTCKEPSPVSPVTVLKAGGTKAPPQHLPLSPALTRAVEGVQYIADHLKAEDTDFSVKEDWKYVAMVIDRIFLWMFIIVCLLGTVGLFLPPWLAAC
T1 sequence (P12390 25-500): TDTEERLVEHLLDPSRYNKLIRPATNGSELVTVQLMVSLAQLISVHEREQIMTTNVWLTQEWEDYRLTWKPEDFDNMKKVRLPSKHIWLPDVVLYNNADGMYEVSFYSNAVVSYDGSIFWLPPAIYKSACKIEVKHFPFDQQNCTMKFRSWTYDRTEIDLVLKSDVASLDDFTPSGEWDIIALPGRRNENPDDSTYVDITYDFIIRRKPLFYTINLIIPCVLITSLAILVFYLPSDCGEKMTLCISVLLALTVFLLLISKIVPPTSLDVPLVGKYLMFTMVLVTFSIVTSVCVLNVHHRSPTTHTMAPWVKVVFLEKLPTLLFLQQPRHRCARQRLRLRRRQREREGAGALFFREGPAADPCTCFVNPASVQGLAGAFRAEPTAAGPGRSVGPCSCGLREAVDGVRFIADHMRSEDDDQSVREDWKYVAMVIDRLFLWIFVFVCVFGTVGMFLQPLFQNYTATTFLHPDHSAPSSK

With `CNC1(CNc2cnc(Cl)c(-c3cccnc3)c2)CC1.Cl.Cl.Cl`, the melting point was 180 to 185 °C.

`CNC1(CNc2cnc(Cl)c(-c3cccc(C(=O)O)c3)c2)CC1.Cl.Cl` yielded a melting point of 140 to 145 °C.

`CNC1(CNc2cnc(Cl)c(-c3ccc(C(=O)O)cc3)c2)CC1.Cl.Cl` had a melting point of 175 to 182 °C.

With `CNC1(CNc2cnc(Cl)c(-c3ccc(N)cc3)c2)CC1.Cl.Cl`, the melting point was in the range of 190 to 196 °C.

The compound `CNC1(CN(C)c2cnc(Cl)c(-c3ccc(C(=O)O)cc3)c2)CC1.Cl.Cl` had a melting point of 138 to 145 °C.

Compound `CNC1(CN(C)c2cnc(Cl)c(-c3ccncc3)c2)CC1.Cl.Cl` yielded a melting point of 110 to 120 °C.

Compound `CNC1(CNc2cnc(C)c(-c3ccc(C(=O)O)cc3)c2)CC1.Cl.Cl` registered a melting point of 241 to 245 °C.

`CNC1(CNc2cnc(C)c(-c3ccncc3)c2)CC1.Cl.Cl.Cl` registered a melting point of 240 to 248 °C.

Take `CNC1(CNc2cnc(C)c(-c3ccc(N)cc3)c2)CC1.Cl.Cl.Cl`: the melting point lay within 190 to 200 °C.

Compound `CNC1(CN(C)c2cnc(C)c(-c3ccncc3)c2)CC1.Cl.Cl.Cl` registered a melting point of 182 to 187 °C.

Compound `CNC1(CN(C)c2cnc(C)c(-c3ccc(N)cc3)c2)CC1.Cl.Cl.Cl` gave a melting point of 235 to 240 °C.

Take `Cl.NCC1(COc2cnc(Cl)c(-c3ccc([N+](=O)[O-])cc3)c2)CC1`: the melting point was 145 to 150 °C.

`CNC1(COc2cnc(Cl)c(-c3ccc(CO)cc3)c2)CC1.Cl.Cl` returned a melting point of 142 to 146 °C.

`Cc1ncc(OCC2(CN)CC2)cc1-c1ccc(Cl)cc1.Cl.Cl` had a melting point of 194 to 199 °C.

The compound `Cc1ncc(OCC2(CN)CC2)cc1-c1cccc(Cl)c1.Cl.Cl` came in with a melting point of 223 to 227 °C.

Compound `CNC1(COc2cnc(C)c(-c3cccc(C#N)c3)c2)CC1.Cl.Cl` returned a melting point of 238 to 242 °C.

`CNC1(COc2cnc(C)c(-c3ccc(C#N)cc3)c2)CC1.Cl.Cl` showed a melting point of 220 to 224 °C.

Regarding `CNC1(COc2cncc(-c3cccc(C#N)c3)c2)CC1.Cl.Cl`, the melting point fell in the range of 110 to 120 °C.

Compound `Cl.NCC1(COc2cnc(F)c(-c3ccc(Cl)cc3)c2)CC1` showed a melting point of 55 to 60 °C.

Consider `Cl.NCC1(COc2cnc(F)c(-c3cccc(Cl)c3)c2)CC1`, for which the melting point was in the range of 126 to 130 °C.

`CNC1(COc2cnc(F)c(-c3ccc(C#N)cc3)c2)CC1.Cl` returned a melting point of 90 to 105 °C.

`CNC1(COc2cnc(F)c(-c3cccc(C#N)c3)c2)CC1.Cl`: the melting point lay within 211 to 215 °C.

As for `Cl.NCC1(COc2cnc(Cl)c(-c3cccc([N+](=O)[O-])c3)c2)CC1`, the melting point lay within 229 to 232 °C.

Compound `CNC1(COc2cnc(Cl)c(-c3ccc(SC)cc3)c2)CC1.Cl.Cl` showed a melting point of 144 to 148 °C.

For the compound `COc1ccc(-c2cncc(OCC3(CN)CC3)c2)cc1.Cl.Cl`, the melting point was in the range of 215 to 220 °C.

The compound `CCc1ccc(-c2cc(OCC3(CN)CC3)cnc2Cl)cc1.Cl.Cl` had a melting point of 112 to 114 °C.

Turning to `Cc1ccccc1-c1cc(OCC2(CN)CC2)cnc1Cl.Cl`, the melting point lay in the range of 130 to 132 °C.

The compound `Cc1cccc(-c2cc(OCC3(CN)CC3)cnc2Cl)c1.Cl` yielded a melting point of 152 to 154 °C.

The compound `Cl.NCC1(COc2cnc(Cl)c(-c3cccc(Cl)c3)c2)CC1` yielded a melting point of 182 to 184 °C.

As for `CNC1(COc2cnc(Cl)c(-c3cccc(C#N)c3)c2)CC1.Cl`, the melting point lay within 228 to 232 °C.

Regarding `COc1cc(-c2cc(OCC3(CN)CC3)cnc2Cl)cc(OC)c1OC.Cl`, the melting point fell in the range of 138 to 140 °C.

In turn, `Cl.NCC1(COc2cnc(Cl)c(-c3cc(C(F)(F)F)cc(C(F)(F)F)c3)c2)CC1` returned a melting point of 182 to 188 °C.

`CNC1(COc2cnc(Cl)c(-c3cc(F)ccc3F)c2)CC1.Cl` yielded a melting point of 140 to 142 °C.

For `CNC1(COc2cnc(Cl)c(-c3cc(Cl)ccc3Cl)c2)CC1.Cl`, the melting point was in the range of 140 to 142 °C.

As to `CNC1(COc2cnc(Cl)c(-c3cc(Cl)cc(Cl)c3)c2)CC1.Cl`, the melting point lay in the range of 186 to 188 °C.

Compound `Cl.NCC1(COc2cnc(Cl)c(-c3c(Cl)cccc3Cl)c2)CC1` displayed a melting point of 182 to 186 °C.

Regarding `CNC1(COc2cnc(Cl)c(-c3cccc(NC(C)=O)c3)c2)CC1.Cl`, the melting point was 220 to 222 °C.

Compound `Cc1cccc(-c2cncc(OCC3(CN)CC3)c2)c1.Cl.Cl` returned a melting point of 215 to 218 °C.

`Cl.Cl.NCC1(COc2cncc(-c3cccc([N+](=O)[O-])c3)c2)CC1`: the melting point was 220 to 225 °C.

On to `Cl.Cl.NCC1(COc2cncc(-c3cccc(Cl)c3)c2)CC1`, for which the melting point fell in the range of 230 to 235 °C.

As to `Cl.Cl.NCC1(COc2cncc(-c3cccc(F)c3)c2)CC1`, the melting point lay within 210 to 214 °C.

Take `CCc1ccc(-c2cncc(OCC3(CN)CC3)c2)cc1.Cl.Cl`: the melting point lay within 197 to 200 °C.

Regarding `CNC1(COc2cncc(-c3ccccc3C)c2)CC1.Cl.Cl`, the melting point is 192 to 196 °C.

Take `Cl.Cl.NCC1(COc2cncc(-c3cc(F)ccc3F)c2)CC1`: the melting point lay in the range of 188 to 192 °C.

For `CNC1(COc2cncc(-c3cc(OC)c(OC)c(OC)c3)c2)CC1.Cl`, the melting point fell in the range of 116 to 120 °C.

`Cl.Cl.NCC1(COc2cncc(-c3cc(Cl)ccc3Cl)c2)CC1` registered a melting point of 195 to 200 °C.

As to `CNC1(COc2cncc(-c3cc(C(F)(F)F)cc(C(F)(F)F)c3)c2)CC1.Cl`, the melting point fell in the range of 132 to 136 °C.

The compound `Cl.Cl.Cl.NCC1(COc2cncc(-c3cccc(N)c3)c2)CC1` had a melting point of 185 to 190 °C.

`Cl.Cl.NCC1(COc2cnc(F)c(-c3cccc(N)c3)c2)CC1` registered a melting point of 158 to 161 °C.

The compound `Cc1ncc(OCC2(CN)CC2)cc1-c1cccc(N)c1.Cl.Cl.Cl` registered a melting point of 222 to 228 °C.

Regarding `CCOC(=O)c1ccc(-c2cc(OCC3(NC)CC3)cnc2Cl)cc1.Cl.Cl`, the melting point is 146 to 148 °C.

Compound `COc1ccc(-c2cc(OCC3(N)CC3)cnc2Cl)cc1.Cl.Cl` registered a melting point of 207 to 211 °C.

As for `COc1ccc(-c2cc(OCC3(N(C)C)CC3)cnc2Cl)cc1.Cl`, the melting point was 208 to 210 °C.

`CNC1(COc2cnc(Cl)c(-c3ccc(C(N)=O)cc3)c2)CC1.Cl` showed a melting point of 130 °C.

`Cl.Cl.NCC1(COc2cncc(-c3ccc(Cl)cc3)c2)CC1` gave a melting point of 208 to 213 °C.

In the case of `CNC1(COc2cnc(F)c(-c3ccc(C(=O)O)cc3)c2)CC1.Cl.Cl`, the melting point was 211 to 215 °C.

On to `Cl.Cl.NCC1(COc2cnc(Cl)c(-c3cccnc3)c2)CC1`, for which the melting point is 210 to 215 °C.

Compound `Cl.Cl.NCC1(COc2cnc(Cl)c(-c3ccncc3)c2)CC1` yielded a melting point of 125 to 130 °C.

In turn, `Cl.Cl.NCC1(COc2cnc(Cl)c(-c3ccc(N)cc3)c2)CC1` displayed a melting point of 240 to 243 °C.

For the compound `Cl.Cl.NCC1(COc2cnc(F)c(-c3ccc(N)cc3)c2)CC1`, the melting point lay within 225 to 230 °C.

Turning to `CNC1(COc2cnc(Cl)c(-c3ccc(O)cc3)c2)CC1.Cl.Cl`, the melting point was in the range of 216 to 220 °C.

`CNC1(COc2cnc(Cl)c(-c3ccc(NC(=O)CCl)cc3)c2)CC1.Cl` had a melting point of 140 to 144 °C.

In turn, `CNC1(COc2cnc(Cl)c(-c3ccc(N=C=S)cc3)c2)CC1.Cl` registered a melting point of 172 to 176 °C.

`Cl.Cl.NCC1(COc2cnc(Cl)c(-c3ccccc3)c2)CC1`: the melting point was in the range of 130 to 135 °C.

For `Cl.Cl.NCC1(COc2cnc(-c3ccc(Cl)cc3)c(-c3ccc(Cl)cc3)c2)CC1`, the melting point lay within 220 to 225 °C.

With `Cl.Cl.NCC1(COc2cnc(-c3ccc([N+](=O)[O-])cc3)c(-c3ccc([N+](=O)[O-])cc3)c2)CC1`, the melting point is 215 to 220 °C.

Compound `CNC1(COc2cnc(-c3ccc(C#N)cc3)c(-c3ccc(C#N)cc3)c2)CC1.Cl.Cl` came in with a melting point of 205 to 208 °C.

With `Cc1ncc(OCC2(CN)CC2)cc1-c1ccc(N)cc1.Cl.Cl.Cl`, the melting point was in the range of 245 to 250 °C.

Consider `CNC1(CNc2cncc(-c3cccc(C(=O)O)c3)c2)CC1.Cl.Cl`, for which the melting point lay in the range of 248 to 250 °C.

With `NCC1(COc2cnc(Cl)c(-c3ccc(F)cc3)c2)CC1` [Example 26, [1-({[6-Chloro-5-(4-fluorophenyl)pyridin-3-yl]oxy}methyl)cyclopropyl]methylamine hydrochloride], in series [1], the inhibition constant (Ki) amounted to 0.3 nM.

On to “[1-({[5-(3,5-Dichlorophenyl)pyridin-3-yl]oxy}methyl)cyclopropyl]methylamine dihydrochloride [Example 52]”, for which the Ki in series [1] was found to be 1.4 nM.

Regarding “[1-({[5-(4-Methoxyphenyl)pyridin-3-yl]oxy}methyl)cyclopropyl]methylamine dihydrochloride [Example 11]”, the Ki in series [1] stood at 0.8 nM.

On to “[1-({[5-(4-Nitrophenyl)pyridin-3-yl]oxy}methyl)cyclopropyl]methylamine dihydrochloride [Example 6]”, for which the inhibitory constant (Ki) in series [1] amounted to 2.3 nM.

As for “[1-({[6-Chloro-5-(3-fluorophenyl)pyridin-3-yl]oxy}methyl)cyclopropyl]methylamine hydrochloride [Example 32]”, in series [1], the Ki is 0.4 nM.

As to “[1-({[6-Chloro-5-(4-methylphenyl)pyridin-3-yl]oxy}methyl)cyclopropyl]methylamine dihydrochloride [Example 10]”, in series [1], the Ki turned out to be 0.7 nM.
